Measurements: patent publication US20030088061A1, “Materials and methods to modulate ligand binding/enzymatic activity of alpha/beta proteins containing an allosteric regulatory site” (priority 2000, published 2003)
Like-named read-outs stand apart in the source and are kept apart here.

Molecular target: T1, αEβ7 (Homo sapiens, UniProt P26010+P38570)
T1 construct: DNA encoding full-length alpha E was identified as follows; expressed in transfected cells; host or cells: JY cells, plasmid pMHneo/aE
T1 sequence (P38570 19-1179): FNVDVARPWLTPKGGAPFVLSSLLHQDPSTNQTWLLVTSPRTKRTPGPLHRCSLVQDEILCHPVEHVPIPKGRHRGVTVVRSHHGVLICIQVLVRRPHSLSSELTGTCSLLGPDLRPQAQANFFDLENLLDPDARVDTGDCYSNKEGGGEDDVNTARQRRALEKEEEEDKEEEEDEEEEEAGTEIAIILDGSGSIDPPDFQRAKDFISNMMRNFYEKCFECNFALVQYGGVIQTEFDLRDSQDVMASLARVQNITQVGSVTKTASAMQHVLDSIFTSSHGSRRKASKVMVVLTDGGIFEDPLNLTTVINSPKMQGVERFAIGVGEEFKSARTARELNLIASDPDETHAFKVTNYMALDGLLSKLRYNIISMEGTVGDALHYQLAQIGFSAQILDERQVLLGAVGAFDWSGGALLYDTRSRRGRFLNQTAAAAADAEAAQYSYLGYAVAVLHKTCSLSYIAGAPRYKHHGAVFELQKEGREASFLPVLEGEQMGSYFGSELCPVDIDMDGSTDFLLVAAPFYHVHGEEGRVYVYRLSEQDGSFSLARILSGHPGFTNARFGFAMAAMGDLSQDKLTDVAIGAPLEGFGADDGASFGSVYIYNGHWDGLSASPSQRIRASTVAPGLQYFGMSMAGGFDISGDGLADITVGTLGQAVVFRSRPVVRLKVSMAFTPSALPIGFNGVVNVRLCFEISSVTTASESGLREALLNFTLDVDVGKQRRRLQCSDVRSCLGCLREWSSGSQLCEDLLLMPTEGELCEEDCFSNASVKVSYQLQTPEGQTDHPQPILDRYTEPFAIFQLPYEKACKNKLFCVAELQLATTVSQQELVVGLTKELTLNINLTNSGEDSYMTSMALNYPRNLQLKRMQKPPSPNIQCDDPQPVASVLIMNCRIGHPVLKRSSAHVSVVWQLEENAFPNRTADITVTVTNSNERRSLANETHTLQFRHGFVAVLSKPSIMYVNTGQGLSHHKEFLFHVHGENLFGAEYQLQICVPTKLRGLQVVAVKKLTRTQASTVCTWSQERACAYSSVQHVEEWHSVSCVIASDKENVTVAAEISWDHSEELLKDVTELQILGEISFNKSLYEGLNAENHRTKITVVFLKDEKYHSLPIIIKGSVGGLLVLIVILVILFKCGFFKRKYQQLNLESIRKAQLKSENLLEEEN
T1 sequence (P26010 20-798 partner): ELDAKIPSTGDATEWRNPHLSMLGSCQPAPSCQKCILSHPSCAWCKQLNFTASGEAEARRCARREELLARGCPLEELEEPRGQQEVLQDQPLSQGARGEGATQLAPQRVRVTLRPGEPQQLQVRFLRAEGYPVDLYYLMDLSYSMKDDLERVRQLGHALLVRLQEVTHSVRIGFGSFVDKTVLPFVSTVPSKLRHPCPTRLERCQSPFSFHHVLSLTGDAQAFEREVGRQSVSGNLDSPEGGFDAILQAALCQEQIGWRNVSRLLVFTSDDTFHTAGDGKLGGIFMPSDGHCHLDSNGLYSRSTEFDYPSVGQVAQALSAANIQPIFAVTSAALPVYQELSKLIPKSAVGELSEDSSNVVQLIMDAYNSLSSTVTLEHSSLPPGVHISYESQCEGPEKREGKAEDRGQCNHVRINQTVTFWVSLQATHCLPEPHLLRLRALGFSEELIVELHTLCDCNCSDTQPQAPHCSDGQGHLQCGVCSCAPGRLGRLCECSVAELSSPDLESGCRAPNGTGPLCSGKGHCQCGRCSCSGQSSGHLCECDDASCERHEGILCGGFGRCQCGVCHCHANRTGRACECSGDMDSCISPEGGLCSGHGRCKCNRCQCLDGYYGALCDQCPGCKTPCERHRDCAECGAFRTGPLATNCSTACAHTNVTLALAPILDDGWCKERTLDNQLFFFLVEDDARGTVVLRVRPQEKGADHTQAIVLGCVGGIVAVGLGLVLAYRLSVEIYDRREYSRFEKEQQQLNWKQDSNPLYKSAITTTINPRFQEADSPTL
Test: JY/aE+ cell adhesion to E-cadherin/Ig
Format: cell-based
Description: Adhesion media (350 μl) (RPMI 1640 containing penicillin and streptomycin, L-glutamine, NaPy, and 5% FBS) was aliquotted into each well in rows A, C, E, G of a deepwell 96-well titer plate, 2.0 ml capacity (Beckman Instruments, Inc., Fullerton, Calif.) in columns 1-11. All compounds to be screened were dissolved in DMSO to a final concentration of 10 mM. Compounds were stored at −20° C., and thawed on the day of use in a 37° C. incubator. Each compound (2.1 μl) was pipetted into a single well in columns 3-11, rows A, C, E, and G in the deepwell titer plate. To wells not containing compound (A1 & A2, C1 & C2, E1 & E2, G1 & G2), 2.1 μl DMSO was added. An anti-β7 monoclonal antibody, FIB504 (ATCC, Rockville, Md.), which blocks αEβ7 binding activity, was added to wells C2 and G2 at a concentration of 7.5 μg/ml. Each deepwell titer plate was covered to prevent dessication and stored in a 37° C. incubator until ready for use.
Adhesion assays were performed in 96-well Immunlon 4 plates (Dynex Technologies, Inc., Chantilly, Va.) as follows. Each well was coated with 50 μl E-cadherin/Ig (3.0 μg/ml) in D-PBS. Control wells were coated with capture antibody FIB504, to quantitate 100% input cell binding, or coating buffer alone to determine background binding. Following an overnight incubation at 4° C., the plates were washed three times with 200 μl/well D-PBS and blocked with 1% BSA in D-PBS for at least 1 hour. The BSA solution was removed and 100 μl of adhesion media (RPMI 1640 containing penicillin and stretomycin, L-glutamine, sodium pyruvate, 0.1% BSA, and 60 ng/ml PMA), was added to rows B through G, columns 1 through 11.
At this point, 100 μl adhesion media containing a test compound at a concentration of 60 μM, was transferred from the deepwell 96-well titer plate, in triplicate, to the E-cadherin/Ig coated adhesion plate. The outer rows were filled with 300 μl of D-PBS. These plates were transferred to a humidified 37° C. incubator with an atmosphere of 5% CO2.
The adhesion assay was initiated by addition of 100 μl of the JY/aE^+ cell suspension to each well of the E-cadherin-coated plate. The final volume in each well was 300 μl adhesion media containing […], PMA (final concentration 20 ng/ml), and the test compound (final concentration 20 μM). The plates were incubated at 37° C. for 30 min. Each compound was tested in triplicate.
Adherent cells were fixed by the addition of 50 μl of a 14% glutaraldehyde solution in D-PBS. Plates were washed with water, stained with 100 μl/well 0.5% crystal violet (Sigma Corp., St. Louis, Mo.) solution for 5 min. Three hundred microliters/well of 70% ethanol was added, and adherent cells were quantitated by determining absorbance at 570 nm. Percentage of cell binding was determined by using the mean values for each triplicate in a given assay in the following formula. [formula]
During the initial screening of test compounds, each chemical entity was tested in cell-based adhesion assays at a fixed concentration of 20 μM. Those compounds that blocked JY/αEβ7-dependent adhesion to E-cadherin/Ig by 50% or more were subsequently retested at multiple concentrations to determine the inhibitory concentration at which cell binding is reduced by 50%, i.e., the IC50 value.
For each IC50 assay, 50 μl of the ligand diluted in 50 mM bicarbonate buffer (pH 9.6) was dispensed per well of an Immulon-4 plate. A single plate was used to test two different ligands, each in triplicate, The coating concentration for the various ligands was as follows: VCAM-1/Ig at 2.0 μg/ml; ICAM-1/Ig at 5.0 μg/ml; vitronectin at 0.5 μg/ml; MAdCAM-1/Ig at 3.0 μg/ml, and iC3b at 5.0 μg/ml. The capture antibody, e.g. anti-CD18 monoclonal antibody TS1/22, was added at a concentration of 10 μg/ml in 50 μl/well. Ligand-coated plates were covered and stored overnight at 4° C. The following day, the contents of each well was decanted, and each plate was washed three times with 200 μl/well D-PBS. […]

[1] = PMA-treated JY cells, read-out: E-cadher αEβ7 IC50
[2] = reproducible inhibitory activity on re-analysis, read-out: IC50, inhibition of JY/aE+ binding to E-cadherin

SMILES	IC50 [1] [µM]	IC50 [2] [µM]
CC(=O)Oc1ccccc1C(=O)n1c(-c2ccccc2)cc2ccccc21 [Cmpd D]	3	< 10
O=C(NCc1cccnc1)c1ccccc1C(=O)Nc1sc2ccccc2c1Cl [Cmpd K]	3	< 10
Nc1ccc(Sc2ccc(NC(=O)CCc3ccccc3)cc2)c(Cl)c1 [Cmpd W]	5	< 10
CC(CN(C)C)NCc1ccccc1Sc1ccc(C(C)(C)C)cc1 (centres unmarked) [Cmpd Z]	3	< 10
